Read-outs that look alike come from different tables or passages of the source.
Target: SARS-CoV-2 NSP3 macrodomain (Mac1) (Severe acute respiratory syndrome coronavirus 2, UniProt P0DTD1)
Assay type: binding
Conditions: for PanDDA run, overall: Hit / PanDDA run, overall: Modeled / PanDDA run, DMSO background map: 1-BDC / PanDDA run, DMSO background map: Hit / PanDDA run, overall: Modeling comment / PanDDA run, TFA/DMSO background map: 1-BDC / PanDDA run, TFA/DMSO background map: Hit: crystal soak 10 mM; for PanDDA run, overall: Hit / PanDDA run, overall: Modeled / PanDDA run, overall: Modeling comment: P43 crystal form; for Total number of conformations: ligand conformations modeled in the crystal structure; for 2*(1-BDC) (%): occupancy estimate from PanDDA
[1] = PanDDA background density correction factor
[2] = TRUE = crystal structure with ligand obtained
[3] = refined crystallographic occupancy
[4] = site of ligand in X-ray crystal structure
[5] = ligand-bound crystal structure obtained (TRUE)
[6] = site occupied in X-ray crystal structure

| SMILES | Occupancy difference (refined_occupancy - 2*(1-BDC)) | 1-BDC [1] | X-ray crystal structure [2] | PanDDA run, overall: Hit | PanDDA run, overall: Modeled | PanDDA run, DMSO background map: 1-BDC | PanDDA run, DMSO background map: Hit | Total number of conformations | 2*(1-BDC) (%) | Refined ligand occupancy (%) [3] [%] | Binding site [4] | 1-BDC (PanDDA background density correction, 1-BDC) | Refined ligand occupancy (%) (crystallographic refinement) | X-ray crystal structure [5] | Binding site [6] | PanDDA run, overall: Modeling comment | PanDDA run, TFA/DMSO background map: 1-BDC | PanDDA run, TFA/DMSO background map: Hit |
| --- | --- | --- | --- | --- | --- | --- | --- | --- | --- | --- | --- | --- | --- | --- | --- | --- | --- | --- |
| Cn1cc(CC(CO)Nc2ncnc3[nH]ccc23)cn1 (stereo not shown) [AVI-3657] | 0 | 0.15 | TRUE | TRUE | TRUE | 0.15 | TRUE | 1 | 30 | 30 | Adenosine | – | – | – | – | – | – | – |
| OCC(CC1OCCO1)Nc1ncnc2[nH]ccc12 (stereo not shown) [AVI-3658] | 0 | 0.2 | TRUE | TRUE | TRUE | 0.2 | TRUE | 1 | 40 | 40 | Adenosine | – | – | – | – | – | – | – |
| OCC(Nc1ncnc2[nH]ccc12)c1ccco1 (stereo not shown) [AVI-3659] | 0 | 0.16 | TRUE | TRUE | TRUE | 0.16 | TRUE | 1 | 32 | 32 | Adenosine | – | – | – | – | – | – | – |
| OCC(CC1CCCO1)Nc1ncnc2[nH]ccc12 (stereo not shown) [AVI-3660] | 0 | 0.23 | TRUE | TRUE | TRUE | 0.23 | TRUE | 1 | 46 | 46 | Adenosine | – | – | – | – | – | – | – |
| OC1CCN(c2ncnc3[nH]ccc23)C1 (stereo not shown) [AVI-3661] | – | – | – | TRUE | TRUE | 0.15 | TRUE | – | 30 | – | – | 0.15 | 40 | TRUE | Adenosine | – | – | – |
| OCC(CC1CC1)Nc1ncnc2[nH]ccc12 (stereo not shown) [AVI-3662] | 0 | 0.14 | TRUE | TRUE | TRUE | 0.14 | TRUE | 1 | 28 | 28 | Adenosine | – | – | – | – | Distal site, weak density, not modeled | – | – |
| OCC(CC1CCOC1)Nc1ncnc2[nH]ccc12 (stereo not shown) [AVI-3665] | 0 | 0.17 | TRUE | TRUE | TRUE | 0.17 | TRUE | 1 | 34 | 34 | Adenosine | – | – | – | – | – | – | – |
| CCC(Nc1ncnc2[nH]ccc12)C(C)(C)O (stereo not shown) [AVI-3667] | 0 | 0.14 | TRUE | TRUE | TRUE | 0.14 | TRUE | 1 | 28 | 28 | Adenosine | – | – | – | – | – | – | – |
| CC(C)CCC(CO)Nc1ncnc2[nH]ccc12.O=C(O)C(F)(F)F (stereo not shown) [AVI-3668] | – | – | – | TRUE | – | 0.15 | TRUE | – | – | – | – | – | – | – | – | Weak density, not modeled | 0.09 | TRUE |
| OCC(Cc1nccs1)Nc1ncnc2[nH]ccc12 (stereo not shown) [AVI-3673] | 0 | 0.19 | TRUE | TRUE | TRUE | 0.19 | TRUE | 1 | 38 | 38 | Adenosine | – | – | – | – | – | – | – |
| Cc1ccccc1CC(CO)Nc1ncnc2[nH]ccc12 (stereo not shown) [AVI-3674] | 0 | 0.19 | TRUE | TRUE | TRUE | 0.19 | TRUE | 1 | 38 | 38 | Adenosine | – | – | – | – | – | – | – |
| O=C(O)C(F)(F)F.OCC(CC1CCOCC1)Nc1ncnc2[nH]ccc12 (stereo not shown) [AVI-3676] | – | – | – | – | – | – | – | – | – | – | – | – | – | – | – | TFA only | – | – |
| OCC(Nc1ncnc2[nH]ccc12)C1CCOC1 (stereo not shown) [AVI-3679] | 0 | 0.16 | TRUE | TRUE | TRUE | 0.16 | TRUE | 1 | 32 | 32 | Adenosine | – | – | – | – | – | – | – |
| O=C(O)C(F)(F)F.OCC12CC(CN1c1ncnc3[nH]ccc13)C2 [AVI-3681] | -14 | 0.22 | – | TRUE | TRUE | 0.22 | TRUE | 1 | 44 | 30 | – | – | – | TRUE | Adenosine | Distal site, weak density, not modeled | – | – |
| Cc1ccc(CC(CO)Nc2ncnc3[nH]ccc23)cc1 (stereo not shown) [AVI-3683] | 20 | 0.15 | TRUE | TRUE | TRUE | 0.15 | TRUE | 2 | 30 | 50 | Adenosine | – | – | – | – | – | – | – |
| Cc1ccc(CC(CO)Nc2ncnc3[nH]ccc23)cc1C (stereo not shown) [AVI-3684] | 20 | 0.15 | TRUE | TRUE | TRUE | 0.15 | TRUE | 2 | 30 | 50 | Adenosine | – | – | – | – | – | – | – |
| OCC1CCCN1c1ncnc2[nH]ccc12 (stereo not shown) [AVI-3685] | 20 | 0.25 | – | TRUE | TRUE | 0.25 | TRUE | 1 | 50 | 70 | – | – | – | TRUE | Adenosine | – | – | – |
| OCC(Cc1ccc(I)cc1)Nc1ncnc2[nH]ccc12 (stereo not shown) [AVI-3686] | 0 | 0.2 | TRUE | TRUE | TRUE | 0.2 | TRUE | 2 | 40 | 40 | Adenosine | – | – | – | – | – | – | – |
| O=C(O)C(F)(F)F.OCC(Nc1ncnc2[nH]ccc12)C(O)C1CCCCC1 (stereo not shown) [AVI-3687] | – | – | – | TRUE | – | 0.15 | TRUE | – | – | – | – | – | – | – | – | Weak density, not modeled | 0.08 | TRUE |
| O=C(O)C(F)(F)F.OCC1(Nc2ncnc3[nH]ccc23)CC1 [AVI-3688] | 20 | 0.2 | TRUE | TRUE | TRUE | 0.2 | TRUE | 1 | 40 | 60 | Adenosine | – | – | – | – | – | – | – |
| OCC(CC1CCCCC1)Nc1ncnc2[nH]ccc12 (stereo not shown) [AVI-3690] | 0 | 0.12 | TRUE | TRUE | TRUE | 0.12 | TRUE | 1 | 24 | 24 | Adenosine | – | – | – | – | Weak density for alternative ligand conformation | – | – |
| OCC(CC1CCCC1)Nc1ncnc2[nH]ccc12 (stereo not shown) [AVI-3691] | -16 | 0.18 | TRUE | TRUE | TRUE | 0.18 | TRUE | 1 | 36 | 20 | Adenosine | – | – | – | – | – | – | – |
